Results: patent US20150359794A1, “IMPAIRMENT OF THE LARGE RIBOSOMAL SUBUNIT PROTEIN RPL24 BY DEPLETION OR ACETYLATION” (Buck Institute for Research on Aging, priority 2014, published 2015)

Experiments:
Format in all cases: cell-based, human
tubulin = assay: Western blot for tubulin acetylation in SKBR3 cells; settings: western blot (FIG. 4c,d)
Source text: (§1) Like TSA, the HDAC6 (class IIb)-selective inhibitors, Tubacin and Compound 101, as well as HDAC6 siRNA, all induce tubulin acetylation as expected as well as ribosomal protein acetylation, including the band that co-migrates with RPL24 (FIG. 4c,d, indicated by arrows). […] Thus, the tubulin acetylating effects of pan-histone deacetylase inhibition, known to be mediated by inhibition or knockdown of HDAC6, correspond to the observed ribosome and RPL24 acetylation responses induced by TSA.
(§2) Cells are lysed in RIPA buffer (10 mM Tris-HCL (pH 8.0), 1 mM EDTA, 0.5 mM EGTA, 1% triton X-100, 0.1% sodium deoxycholate, 0.1% SDS, 140 mM NaCl, 20 mM NaF, Complete EDTA-free protease inhibitor tablets (Roche Diagnostics Corp., Basel, Switzerland) and the phosphatase inhibitor cocktail PhosSTOP (Roche)), the latter two as indicated by the manufacturer's protocol. Equal amounts of protein are diluted in 2× sample buffer. Immunoblots on PVDF (Polyvinyldene Fluoride) membranes are blocked with nonfat milk in tris-buffered saline with 0.05% tween-20 (TBST). The following antibodies are incubated with membranes in 5% nonfat milk in TBST: RPL24 (Proteintech, Chicago, Ill.), Cyclin D1, Rack1, RPL4 (Santa Cruz Biotechnology, Santa Cruz, Calif.), NBS1, GAPDH (EMD Millipore Corporation, Chicago, Ill.), Survivin, β-tubulin, acetyl-lysine, eIF6, acetyl-H2B, H2B, (Cell Signaling Technology, Boston, Mass.), acetyl-tubulin, tubulin (Sigma Aldrich (St. Louis, Mo.))
FIG. 4: Ribosomal protein acetylation is induced by histone deacetylase inhibition. (a-c) SKBR3 cells were treated with the indicated drugs for the indicated period of time. (d) SKBR3 cells were transfected with the indicated siRNAs and allowed to incubate for 72 hours. (a, c, d). The indicated western blots were performed in ribopellets, total cytoplasmic lysates, or nuclear extracts. (b) Mass spectrometry was performed on ribopellets as described in materials and methods and in FIG. 6. The fold change in acetylated peptide to total peptide case by TSA treatment is plotted. Only proteins that underwent at least a two-fold induction upon TSA treatment are shown. Error bars represent the standard error of the mean for three biological replicates.

ribosomal protein = assay: Acetyl-lysine western blot of ribopellets (ribosomal protein acetylation); settings: SKBR3 cells; for ribosomal protein acetylation, including the band that co-migrates with RPL24: western blot of ribopellets (FIG. 4c,d)
Description: (§3) Previous studies have shown that pan-inhibitors of class I and II histone deacetylases, like TSA, can rapidly destabilize a number of oncogenic transcripts including HER2 in a cycloheximide-dependent manner (FIG. 9). […] Thus, SKBR3 cells were treated with TSA to evaluate polysome protein acetylation and determine if, similar to RPL24 depletion, histone deacetylase inhibition can affect ribosome assembly dynamics. To detect early (2 h) ribosome or polysome acetylation following histone deacetylase inhibition treatment (1 μM TSA), SKBR3 polysomes were isolated using a discontinuous sucrose gradient as previously described. […] Mass spectrometry studies indicate that 15 ribosomal proteins, 11 large subunit proteins (RPL24 included) and 4 small subunit proteins, underwent at least a two-fold induction in acetylation following 2 h or 6 h TSA treatment (1 μM) (FIG. 4b, FIG. 10a-q).
as §1, §2
Cells, plated at […] confluency, are treated as indicated. After treatment, cells are treated with 50 μg/ml cycloheximide for 15 minutes. Cells are lysed with a buffer containing 10 mM HEPES, 10 mM KCl, 75 mM NaCl, 10 mM MgCl2, 0.35% NP40, pH 7.9 supplemented with Complete EDTA-free protease inhibitor tablets, PhosSTOP phosphatase inhibitor tablets (Roche) per manufacturer's instructions, 50 μg/ml cycloheximide, SUPERase RNase inhibitors (Life Technologies) per manufacturer's instructions, 15 μM TSA, and 5 mM nicotinimide to inhibit histone deacetylases. Supernatants are collected as cytoplasmic preparations. Where indicated, pellets containing nuclei are resuspended in RIPA buffer (described above). The suspension is spun at 13,000 rpm for 5 min and supernatants are collected as nuclear preparations.
Ribosomes are subsequently isolated from cytoplasmic preparations as described previously. Briefly, lysates are layered on top of a 12% and 33% discontinuous sucrose gradient and spun at 38,000 rpm for 2 h. The resulting polysome pellet is then resuspended, stripped of RNA with acetic acid, and then pelleted with acetone. The pellet is then resuspended in 8 M urea, 2% CHAPS, and 25 mM dithiothreitol (DTT).
FIG. 4: Ribosomal protein acetylation is induced by histone deacetylase inhibition. (a-c) SKBR3 cells were treated with the indicated drugs for the indicated period of time. (d) SKBR3 cells were transfected with the indicated siRNAs and allowed to incubate for 72 hours. (a, c, d). The indicated western blots were performed in ribopellets, total cytoplasmic lysates, or nuclear extracts. […]

histone H2B = assay: Western blot for histone H2B acetylation in SKBR3 cells; settings: western blot (FIG. 4c)
Source text: as §1
Cells are lysed in RIPA buffer (10 mM Tris-HCL (pH 8.0), 1 mM EDTA, 0.5 mM EGTA, 1% triton X-100, 0.1% sodium deoxycholate, 0.1% SDS, 140 mM NaCl, 20 mM NaF, Complete EDTA-free protease inhibitor tablets (Roche Diagnostics Corp., Basel, Switzerland) and the phosphatase inhibitor cocktail PhosSTOP (Roche)), the latter two as indicated by the manufacturer's protocol. Equal amounts of protein are diluted in 2× sample buffer. Immunoblots on PVDF (Polyvinyldene Fluoride) membranes are blocked with nonfat milk in tris-buffered saline with 0.05% tween-20 (TBST). […]

HER2 mRNA = assay: Northern blot of HER2 transcript levels; settings: SKBR3 cells, cycloheximide 50 μg/ml, 6 h with TSA 1 μM
Description: as §3
Cells are harvested and RNA is extracted using Trizol (Life Technologies) per manufacturer's protocol. Northern blots are performed as previously described. Briefly, RNA is then electrophoresed into 1% agarose-formaldehyde gels and transferred onto PVDF membranes. Membranes are then hybridized with ^32P-labelled cDNA probes for HER2 or GAPDH, washed, and visualized by autoradiography.
SKBR3 cells were treated with TSA (1 μM, 6 h) and/or cycloheximide (CX, 50 μg/ml, 6 h) or with the respective vehicle controls. […]

Row | Compound | tubulin acetylation (tubulin) | ribosomal protein acetylation, including the band that co-migrates with RPL24 (ribosomal protein) | histone H2B acetylation (histone H2B) | ribosomal protein acetylation (ribosomal protein; even at a dose of 20 μM (FIG. 4c)) | effect on TSA-induced HER2 mRNA decay (HER2 mRNA)
1 | O=C(CCCCCCC(=O)Nc1ccc([C@H]2O[C@@H](CSc3nc(-c4ccccc4)c(-c4ccccc4)o3)C[C@@H](c3ccc(CO)cc3)O2)cc1)NO [Tubacin] | induce | induce | – | – | –
2 | Nc1ccccc1NC(=O)c1ccc(CNC(=O)OCc2cccnc2)cc1 [Entinostat] | without acetylating tubulin | – | induces | does not alter | –
3 | C[C@@H]1C[C@@H]([C@H](O)CC2CC(=O)NC(=O)C2)C(=O)[C@@H](C)C1 [cycloheximide] | – | – | – | – | abrogated
4 | O=C(NO)c1cnc(NC2(c3cccc(F)c3)CCCCC2)nc1 [Compound 101] | induce | induce | – | – | –
